Experimental findings from patent publication US10882856B2 (BeiGene, Ltd., priority 2017, dated 2021) are described below.

The target in test [1] is T1, IDO1 (Homo sapiens, UniProt P14902). Kind of test: IDO1 enzymatic assay. It is filed as biochemical. Set-up: His tag (N); made in house; host or cells: E. coli. Conditions: read-out: Enzyme IC50 IDO1. Summed up: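 Assays were run in 50 mM potassium phosphate pH 7.5 with 0.1% BSA for 1.5 hours at 24 °C. Each contained 50 nM E. coli-purified, N-terminally His-tagged IDO1, compound, 1.3 mM D-tryptophan, 5 mM L-ascorbic acid, methylene blue and 0.4 mg/mL catalase. IC50 was calculated from remaining enzyme activity across a rising compound series, with activity taken as the slope of N'-formylkynurenine formation read continuously at 321 nm for 1 hour.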

Test [2] concerns the target T1, IDO1. Kind of test: Hela cell-based IDO1 assay. The settings on record: Hela cells. Summed up:
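HeLa cells were plated at 8000 per well in 96-well plates containing phenol red-free DMEM with 10% FBS, and after 4 hours compound dilutions made in DMSO were added together with IFN-γ (final 100 ng/mL) and 0.4 mM L-Trp before 48 hours at 37 °C, 5% CO2. Supernatants were deproteinised with trichloroacetic acid, mixed with 2% 4-(dimethylamino)benzaldehyde and read at 480 nm for kynurenine. Four-parameter logistic fits were run in XLfit. Potency was derived from these fits.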

In test [3] the target is T2, cellular TDO2 in HEK293-TDO2 cells (Homo sapiens, UniProt P48775).
T2 construct: expressed in transfected cells; host or cells: HEK293 (ATCC), stably transfected
Kind of test: 293-TDO2 cell-based assay (Kyn colorimetric). Conditions: 48 hours of incubation. Summed up:
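HEK293 cells stably expressing TDO2 (10000/well, phenol red-free DMEM, 10% FBS) were dosed 4 h after plating and incubated 48 h at 37° C. Supernatant Kyn was measured after TCA precipitation by 4-(dimethylamino)benzaldehyde colour at 480 nm. IC50 came from four-parameter logistic fits.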

Structures can show the parent of a compound that is named as a salt. A value given as a limit tells only on which side of the number the result lay.

T1 sequence (P14902 whole entry): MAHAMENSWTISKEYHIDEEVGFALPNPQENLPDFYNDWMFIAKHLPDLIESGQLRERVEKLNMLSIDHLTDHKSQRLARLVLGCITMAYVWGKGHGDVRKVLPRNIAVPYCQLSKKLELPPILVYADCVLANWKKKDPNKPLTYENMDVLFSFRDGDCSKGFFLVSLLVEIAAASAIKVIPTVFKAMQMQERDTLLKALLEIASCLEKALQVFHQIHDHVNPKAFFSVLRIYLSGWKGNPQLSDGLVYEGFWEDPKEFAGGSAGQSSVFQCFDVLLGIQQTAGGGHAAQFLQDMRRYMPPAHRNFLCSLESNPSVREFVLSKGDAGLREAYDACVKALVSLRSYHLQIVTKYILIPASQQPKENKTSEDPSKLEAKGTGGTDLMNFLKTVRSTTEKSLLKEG
T2 sequence (P48775 whole entry): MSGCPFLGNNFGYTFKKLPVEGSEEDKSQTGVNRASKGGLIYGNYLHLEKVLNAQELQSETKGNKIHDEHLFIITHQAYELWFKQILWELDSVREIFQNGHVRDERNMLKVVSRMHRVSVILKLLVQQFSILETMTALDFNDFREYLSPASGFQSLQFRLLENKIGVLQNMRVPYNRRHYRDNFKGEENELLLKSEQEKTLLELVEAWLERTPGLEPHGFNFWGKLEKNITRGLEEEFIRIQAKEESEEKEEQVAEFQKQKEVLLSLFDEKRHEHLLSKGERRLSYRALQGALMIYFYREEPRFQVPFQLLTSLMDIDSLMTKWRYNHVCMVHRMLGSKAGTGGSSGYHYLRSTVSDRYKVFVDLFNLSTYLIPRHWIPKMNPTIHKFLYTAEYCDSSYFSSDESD

One may read the IC50 as the concentration at which inhibition is half-maximal. The term EC50 denotes the midpoint of the concentration-response curve. A higher EC50 goes with weaker potency. Take `COc1ccc([C@H]2CC[C@H](C(O)c3c(C4CC4)ccc4cncn34)CC2)c(F)c1` (single isomer, unassigned) [Example D146b]: the IC50 in test [1] is 2.9 µM. For the same molecule, the EC50 in test [2] was 4.57 µM; in test [3], greater than 10 µM.
Taken in the same sequence, the figures for `COc1ccc([C@H]2CC[C@H]([C@H](O)c3c(C4CC4)ccc4cncn34)CC2)c(Cl)c1` (single isomer, unassigned) [Example D147a] were 0.02 µM, 0.198 µM and greater than 10 µM.
Taken in the same sequence, the figures for `COc1ccc([C@H]2CC[C@H]([C@@H](O)c3c(C4CC4)ccc4cncn34)CC2)c(Cl)c1` (single isomer, unassigned) [Example D147b] were greater than 10 µM, 4.5 µM and greater than 10 µM.
Taken in the same sequence, the figures for `COc1ccc([C@H]2CC[C@H](C(O)c3c(C4CC4)ccc4cncn34)CC2)cc1Cl` (single isomer, unassigned) [Example D148a, hydrochloride] were 0.017 µM, 0.08 µM and greater than 10 µM.
In the case of `COc1ccc([C@H]2CC[C@H](C(O)c3c(C4CC4)ccc4cncn34)CC2)cc1Cl` (single isomer, unassigned) [Example D148b, hydrochloride], the IC50 in test [1] is greater than 10 µM. Further, the figures for the EC50 in test [2] and in test [3] were 7.01 µM and greater than 10 µM, respectively.
For the molecule `O[C@H](c1c(C2CC2)ccc2cncn12)[C@H]1CC[C@H](c2ccnc3ccc(F)cc32)CC1` (single isomer, unassigned) [Example D150a], the IC50 in test [1] turned out to be 0.016 µM. Also, the EC50 in test [2] is 0.018 µM; in test [3] it was greater than 10 µM.
Taken in the same sequence, the figures for `O[C@@H](c1c(C2CC2)ccc2cncn12)[C@H]1CC[C@H](c2ccnc3ccc(F)cc32)CC1` (single isomer, unassigned) [Example D150b] were 1.4 µM, 1.1 µM and greater than 10 µM.
Taken in the same sequence, the figures for `OC(c1c(C2CC2)ccc2cncn12)[C@H]1CC[C@H](c2csc3ccccc32)CC1` (single isomer, unassigned) [Example D155a] were 0.028 µM, 0.027 µM and greater than 10 µM.
Taken in the same sequence, the figures for `O[C@@H](c1c(C2CC2)ccc2cncn12)C1CCC(c2csc3ccccc23)CC1` (single isomer, unassigned) [Example D155b] were 9 µM, 5.63 µM and greater than 10 µM.
In the case of `O[C@@H](c1c(C2CC2)ccc2cncn12)[C@H]1CC[C@H](c2cccc(F)c2)CC1` (single isomer, unassigned) [Example D156b], the IC50 in test [1] was greater than 10 µM. In addition, the figures for the EC50 in test [2] and in test [3] were 6.99 µM and greater than 10 µM, respectively.
`O[C@H](c1c(C2CC2)ccc2cncn12)[C@H]1CC[C@H](c2ccc3ncccc3c2)CC1` (single isomer, unassigned) [Example D157a]: the IC50 in test [1] stood at 0.015 µM. In addition, the EC50 in test [2] was 0.052 µM; in test [3] it was greater than 10 µM.
Taken in the same sequence, the figures for `O[C@@H](c1c(C2CC2)ccc2cncn12)[C@H]1CC[C@H](c2ccc3ncccc3c2)CC1` (single isomer, unassigned) [Example D157b] were greater than 10 µM, greater than 10 µM and greater than 10 µM.
Taken in the same sequence, the figures for `CC(C)c1ccc2cncn2c1[C@@H](O)[C@H]1CC[C@H](c2ccc(F)cc2)CC1` (single isomer, unassigned) [Example D166a] were 0.026 µM, 0.014 µM and greater than 10 µM.
Taken in the same sequence, the figures for `CC(C)c1ccc2cncn2c1[C@H](O)[C@H]1CC[C@H](c2ccc(F)cc2)CC1` (single isomer, unassigned) [Example D166b] were greater than 10 µM, 5.21 µM and greater than 10 µM.
As for `CC(C)c1ccc2cncn2c1[C@@H](O)[C@H]1CC[C@H](c2cccc(F)c2)CC1` (single isomer, unassigned) [Example D167a], the half-inhibitory concentration (IC50) in test [1] amounted to 0.018 µM. In addition, the EC50 is 0.015 µM in test [2] and greater than 10 µM in test [3].
As to `CC(C)c1ccc2cncn2c1[C@H](O)[C@H]1CC[C@H](c2cccc(F)c2)CC1` (single isomer, unassigned) [Example D167b], the IC50 in test [1] came to 9.8 µM. The EC50 is 2.79 µM in test [2] and greater than 10 µM in test [3].
Taken in the same sequence, the figures for `CC(C)c1ccc2cncn2c1[C@@H](O)[C@H]1CC[C@H](c2cccc(Cl)c2)CC1` (single isomer, unassigned) [Example D168a] were 0.017 µM, 0.025 µM and greater than 10 µM.
Taken in the same sequence, the figures for `CC(C)c1ccc2cncn2c1[C@H](O)[C@H]1CC[C@H](c2cccc(Cl)c2)CC1` (single isomer, unassigned) [Example D168b] were greater than 10 µM, 6.47 µM and greater than 10 µM.
Taken in the same sequence, the figures for `COc1cccc([C@H]2CC[C@H]([C@H](O)c3c(C(C)C)ccc4cncn34)CC2)c1` (single isomer, unassigned) [Example D169a] were 0.015 µM, 0.014 µM and greater than 10 µM.
For `COc1cccc([C@H]2CC[C@H]([C@@H](O)c3c(C(C)C)ccc4cncn34)CC2)c1` (single isomer, unassigned) [Example D169b], the IC50 in test [1] stood at 7.5 µM. Moreover, the EC50 is 5.95 µM in test [2] and greater than 10 µM in test [3].
Take `O[C@@H](c1c(C2CC2)ccc2cncn12)C1CCN(c2ccccc2)CC1` (single isomer, unassigned) [Example D170b]: in test [1], the IC50 was determined as 8.82 µM. Besides, the EC50 in test [2] is 7.94 µM; in test [3], greater than 10 µM.
Taken in the same sequence, the figures for `O[C@H](c1c(C2CC2)ccc2cncn12)C1CCN(c2ccc(F)cc2)CC1` (single isomer, unassigned) [Example D171a] were 0.015 µM, 0.03 µM and greater than 10 µM.
Taken in the same sequence, the figures for `O[C@@H](c1c(C2CC2)ccc2cncn12)C1CCN(c2ccc(F)cc2)CC1` (single isomer, unassigned) [Example D171b] were 8.26 µM, 5.74 µM and greater than 10 µM.
Taken in the same sequence, the figures for `O[C@H](c1c(C2CC2)ccc2cncn12)C1CCN(c2cccc(Cl)c2)CC1` (single isomer, unassigned) [Example D173a] were 0.018 µM, 0.033 µM and greater than 10 µM.
As for `O[C@@H](c1c(C2CC2)ccc2cncn12)C1CCN(c2cccc(Cl)c2)CC1` (single isomer, unassigned) [Example D173b], the IC50 in test [1] came to 2.7 µM. Moreover, the EC50 is 7.39 µM in test [2] and greater than 10 µM in test [3].
Taken in the same sequence, the figures for `O[C@H](c1c(C2CC2)ccc2cncn12)C1CCN(c2ccc(Cl)cc2)CC1` (single isomer, unassigned) [Example D174a] were 0.015 µM, 0.08 µM and greater than 10 µM.
Taken in the same sequence, the figures for `O[C@@H](c1c(C2CC2)ccc2cncn12)C1CCN(c2ccc(Cl)cc2)CC1` (single isomer, unassigned) [Example D174b] were greater than 10 µM, 5.5 µM and greater than 10 µM.
Taken in the same sequence, the figures for `O[C@H](c1c(C2CC2)ccc2cncn12)C1CCN(c2ccc(F)c3ncccc23)CC1` (single isomer, unassigned) [Example D175a] were 0.012 µM, 0.0077 µM and greater than 10 µM.
Consider `O[C@@H](c1c(C2CC2)ccc2cncn12)C1CCN(c2ccc(F)c3ncccc23)CC1` (single isomer, unassigned) [Example D175b], for which, in test [1], the half-inhibitory concentration (IC50) is 0.74 µM. For the same molecule, the EC50 in test [2] is 0.407 µM; in test [3], greater than 10 µM.
Taken in the same sequence, the figures for `O[C@@H](c1c(C2CC2)ccc2cncn12)C1CCN(c2ccc(Cl)c3ncccc23)CC1` (single isomer, unassigned) [Example D178b] were 2.3 µM, 1.47 µM and greater than 10 µM.
Taken in the same sequence, the figures for `O[C@@H](c1cc(Cl)cc2cncn12)[C@H]1CC[C@H](c2ccc(Cl)cc2)CC1` (single isomer, unassigned) [Example E101b] were 2.8 µM, greater than 10 µM and greater than 10 µM.
Taken in the same sequence, the figures for `O[C@@H](c1cc(Cl)cc2cncn12)[C@H]1CC[C@H](c2cccc3ccccc32)CC1` (single isomer, unassigned) [Example E103b] were 1.4 µM, greater than 10 µM and greater than 10 µM.
On to `O[C@H](c1cc(Cl)cc2cncn12)[C@H]1CC[C@H](c2ccc3ccccc3c2)CC1` (single isomer, unassigned) [Example E104a], for which the concentration for half-maximal inhibition (IC50) in test [1] was found to be 0.029 µM. In addition, the results for the EC50 in test [2] and in test [3] were 3.7 µM and greater than 10 µM, respectively.
